Results: US4524059A, “Fatty acid analogs” (The General Hospital Corporation, priority 1983, dated 1985)
Like-named read-outs stand apart in the source and are kept apart here.

What was measured:
[1] = Sequential positron tomography imaging of the heart in a mongrel dog, 201Tl as control; type: in vivo
Procedure: Solutions of [^131 I]-BMPTA and, as a control, ^201 T1, are injected sequentially in a mongrel dog. After each injection, sequential images of the dog's heart are obtained using positron tomography.

[2] = Biodistribution in mice; type: in vivo
[3] = Biodistribution and positron tomography imaging of the heart and liver in mongrel dogs; details: dog, images 3, 13 and 48 minutes after injection, [^11 C] BMHDA versus [^11 C] HDA
Procedure: (§2) Mongrel dogs are anesthetized with sodium pentabarbitol (Diabatol, 0.55 cc/kg) and 0.8-3 mCi of [^11 C] MHDA is injected through a femoral vein. After 1 minute, serial blood samples are taken using a femoral vein catheter to determine the blood clearance rate. A 3 ml aliquot is taken every minute for the first 5 minutes, every 5 minutes for the next 15 minutes, and every 10 minutes for the next hour. The blood samples are weighed, counted in a well-scintillation counter, and the activity corrected for decay.
(§3) In order to determine the distribution over time of the [^11 C] […] Prior to imaging, each dog is placed between the camera heads, a phantom filled with an aqueous solution of ^68 Ga Cl3 is placed beneath the animal, and transmission images taken. Sequential images are collected for 1 minute each at the following times: 3 minutes, 8 minutes, 13 minutes, 28 minutes, 48 minutes, and 60 minutes. The images are corrected for decay and for photon attenuation.
(§4) In a companion biodistribution study, uptake in 2 dogs in different areas of the myocardium and average uptake for the whole heart are determined. […] Positron tomography images are obtained of the heart and liver of the 2 dogs 3, 13, and 48 minutes after injection with [^11 C] […] Into each dog there is injected, sequentially, [^11 C] […] HDA.

[4] = Imaging study of a canine heart one hour post-LAD ligation; type: in vivo; details: dog
Excerpt: In addition to its long retention time, [^11 C] […] An imaging study of a canine heart following [^11 C]

[5] = Myocardial kinetics by positron tomography in adult, fasted, human volunteers; type: in vivo; details: 1-5 mCi intravenously
Procedure: (§1) The myocardial kinetics of BMHDA are evaluated in adult, fasted, human volunteers by positron tomography. Following attenuation measurements, volunteers receive between 1-5 mCi [^11 C] BMHDA intravenously and serial images are recorded for 30 min. No changes in heart rate, blood pressure, ECG, or respiratory rate are observed.

[6] = dog, in vivo
Procedure: as §2, §3, §4

[7] = Heart rate, blood pressure, ECG and respiratory rate in human volunteers receiving the tracer; type: in vivo; details: 1-5 mCi intravenously
Procedure: as §1

[8] = Tissue distribution study in CD Fischer rats (organ radioactivity, NaI well scintillation counter); type: in vivo; details: rat
Procedure: CD Fischer rats (175-225 g) are anesthetized with ether and 0.2 ml ([…]) of [^11 C] BMHDA is injected through the femoral vein. The rats are sacrificed by ether asphyxiation at 5, 15, 30, and 60 minutes after dosing. The appropriate organs are excised and radioactivity measured in a NaI (T1) well scintillation counter.

[9] = throughout the monitoring period

For CC(CCCCCCCCCCCc1ccc([131I])cc1)CC(=O)O (stereo not drawn) [[^131 I]-BMPTA, Beta-methyl-omega-(p-[^131 I]iodophenyl) tetradecanoic acid], the “retention by the heart muscle compared to ^201 T1” value [1] was “longer retention”, the “time after injection over which clear images of the heart are obtained” value [1] was “as long as two hours after the injection” and the “activity in the heart over the initial 60 minute period” value ([1]; 60 minutes) was “remains essentially the same”. The “time of peak uptake by the kidney” value [2] was 15 min, the “uptake in the heart” value ([2]; 5 minutes after injection) was “high levels of uptake” and the “uptake in the liver” value ([2]; 5 minutes after injection) was “high levels of uptake”. The “uptake by the kidney after the peak” value ([2]; 30 minutes after injection) was “declining slightly”, the “maintenance of radioactivity in heart and liver” value ([2]; over the 30 minutes of the experiment) was “high levels of radioactivity generally being maintained” and the radioactivity in blood [2, 9] was “lower throughout the monitoring period”. The “radioactivity in skeletal muscle” value [2, 9] was “lower throughout the monitoring period” and the “radioactivity in the lungs” value [2, 9] was “lower throughout the monitoring period”.
With CCCCCCCCCCCCCCCCC(=O)O [[^11 C] HDA, [^11 C] heptadecanoic acid] the “wash-out from / retention in the myocardium” value [3] was “rapidly washes out of the tissue”.
In the case of CCCCCCCCCCCCCCC(C)C[11C](=O)O (stereo not drawn) [[^11 C] BMHDA, [1-^11 C] beta-methylheptadecanoic acid], the “uptake in normal areas of the heart” value [4] is reported as “very high uptake”, the “uptake in the apex, the region in which the infarct is located” value [4] is reported as “much lower uptake” and the uptake pattern [4] is reported as “desirably selective uptake pattern”. For the same compound, the “time in which myocardial activity approaches a constant level” value [5] was at most 3 min, the “myocardial activity for the remainder of the observation” value ([5]; serial images for 30 min) was “constant for the remainder of the observation” and the “radioactivity in the myocardium over time” value [6] was “remains constant throughout the experiment (60 minutes)”. The “region of highest regional uptake in the myocardium” value [6] was “left ventricle”, the “wash-out from / retention in the myocardium” value [6] was “much higher retention in the myocardium” and the ECG [7] was “No changes”. For the same compound, the blood pressure [7] was “No changes”, the heart rate [7] was “No changes” and the respiratory rate [7] was “No changes”. The “extraction by the heart muscle” value ([8]; i.v. (femoral vein), 5-60 min) was “selectively extracted by the heart muscle”, the “retention of radioactivity in the heart” value ([8]; i.v. (femoral vein), 5-60 min) was “retained in the heart for up to one hour” and the liver activity ([8]; i.v., 5-60 min) was “increases during the course of the study”. The lung activity ([8]; i.v., compared with heart activity) was “at all times lower than heart activity”.
